Experimental data published in US5789439A, “Pharmaceutical use of forskolin derivatives” (Nippon Kayaku Kabushiki Kaisha, priority 1990, dated 1998).
Counter-ions that a name gives are not always drawn. Values belong to the compound of their own block, whether it stands above or below them.

Columns and labels:
Assay type in all cases: cell-based
[1] = tested on: NB-1 cells (a human neuroblastoma strain); assay: Differentiation inducing effect for NB-1 cells; parameters: key: -: none; ±: slight (<20%); +: medium (20-80%); ++: heavy (>80%); details: 4-hour incubation
Description: The differentiation inducing effect for the NB-1 cells (a human neuroblastoma strain: cell strain derived from neuroblastoma generated in infantile adrenal gland) was examined. The NB-1 cells were applied to a 96-well plate at a rate of 2×10^3 cells/well and precultured for 3 days. After attachment and growth were stabilized, the medium (RPMI 1640+10% fetal calf serum+SM.PC) was exchanged and a 10 μl solution of each test compound was added. Then, the cells were kept under constant observation to determine the occurrence or non-occurrence of differentiation. 2 mM (1.037 mg/ml) of dibutyryl cAMP dissolved in RPMI 1640 was used as positive control. NKH-477 and 14,15-dihydro-6-(3-dimethylaminopropionyl)forskolin hydrochloride were dissolved in a physiological saline. Forskolin was dissolved in DMSO and diluted with a physiological saline. The criterion for judgment of morphological change in differentiation is as follows. The figures in the parentheses are the ratio of the differentiated cells to the whole cells. It was confirmed that DMSO was totally devoid of differentiation inducing and promoting action at the concentrations used in this test.

[2] = tested on: ADP-induced aggregation of rabbit blood thrombocyte; assay: ADP-induced platelet aggregation inhibition, rabbit platelet rich plasma; details: Oryctolagus cuniculus, rabbit PRP, ADP 3×10^-6 M, mean, n = 5, read-out: Platelet aggregation inhibitory action (IC50), ADP-induced aggregation
Description: The platelet aggregation inhibitory action of NKH-477 was examined on collagen-induced aggregation and ADP-induced aggregation of rabbit blood thrombocyte. The male Japanese white rabbits (body weight: 2.4-2.8 kg, procured from Tokyo Experimental Animals Co., Ltd.) were divided into groups of 5. The rabbits were etherized and blood was collected from the carotid artery of each rabbit. A 3.8% sodium citrate solution (final concentration: 0.38%) was added to a portion of blood collected from each group of rabbits to obtain platelet rich plasma (PRP). The remaining portion of blood was centrifuged at 3,000 r.p.m. for 15 minutes to obtain platelet poor plasma (PPP). First, permeability of PRP and PPP was determined by using an aggregometer (RMA-31 mfd. by Rika Denki Kogyo K. K.) and set at 0% and 100%, respectively. Separately from the above operation, 250 μl of PRP was placed in a cuvette and after preliminary heating at 37° C. for 2 minutes, 20 μl of specimen was added and incubated under stirring for 2 minutes. Then 10 μl of ADP (Sigma, final conc.: 3×10^-6 M) or collagen (Hormon-Chemie, final conc.: 10 μg/ml) was added and the transmission rate was measured. The maximum transmission rate observed in this operation was termed as the maximum aggregation rate. Recording in this operation was conducted on an ink-written recorder (B-381L mfd. by Rika Denki Kogyo K. K.). […]

[3] = tested on: collagen-induced aggregation of rabbit blood thrombocyte; assay: Collagen-induced platelet aggregation inhibition, rabbit platelet rich plasma; details: Oryctolagus cuniculus, Platelet; rabbit PRP, collagen 10 μg/ml; mean, n = 5; read-out: Platelet aggregation inhibitory action (IC50), Collagen-induced aggregation
Description: The platelet aggregation inhibitory action of NKH-477 was examined on collagen-induced aggregation and ADP-induced aggregation of rabbit blood thrombocyte. The male Japanese white rabbits (body weight: 2.4-2.8 kg, procured from Tokyo Experimental Animals Co., Ltd.) were divided into groups of 5. The rabbits were etherized and blood was collected from the carotid artery of each rabbit. A 3.8% sodium citrate solution (final concentration: 0.38%) was added to a portion of blood collected from each group of rabbits to obtain platelet rich plasma (PRP). The remaining portion of blood was centrifuged at 3,000 r.p.m. for 15 minutes to obtain platelet poor plasma (PPP). First, permeability of PRP and PPP was determined by using an aggregometer (RMA-31 mfd. by Rika Denki Kogyo K. K.) and set at 0% and 100%, respectively. Separately from the above operation, 250 μl of PRP was placed in a cuvette and after preliminary heating at 37° C. for 2 minutes, 20 μl of specimen was added and incubated under stirring for 2 minutes. Then 10 μl of ADP (Sigma, final conc.: 3×10^-6 M) or collagen (Hormon-Chemie, final conc.: 10 μg/ml) was added and the transmission rate was measured. The maximum transmission rate observed in this operation was termed as the maximum aggregation rate. Recording in this operation was conducted on an ink-written recorder (B-381L mfd. by Rika Denki Kogyo K. K.). NKH-477 was dissolved in a physiological saline to make concentrations of 10^-8 to 10^-5 M. Forskolin dissolved in ethanol was used as control.

SMILES: CC[C@@]1(C)CC(=O)[C@]2(O)[C@@]3(C)[C@@H](O)CCC(C)(C)[C@@H]3[C@H](OC(=O)CCN(C)C)[C@H](OC(C)=O)[C@@]2(C)O1 [14,15-dihydro-6-(3-dimethylaminopropionyl)forskolin hydrochloride]
- Effect (differentiation inducing) ([1]; Dose 1.56 μM): ± (slight (<20%))
- Effect (differentiation inducing) ([1]; Dose 6.25 μM): ± (slight (<20%))
- Effect (differentiation inducing) ([1]; Dose 25.00 μM): ++ (heavy (>80%))
- Effect (differentiation inducing) ([1]; Dose 100.00 μM): ++ (heavy (>80%))

SMILES: CCCC(=O)Nc1ncnc2c1ncn2[C@@H]1O[C@@H]2COP(=O)(O)O[C@H]2[C@H]1OC(=O)CCC [Dibutyryl cAMP, dibutyryl cAMP, reference compound]
- Effect (differentiation inducing) ([1]; Dose 2000.0 μM): + (medium (20-80%))

- IC50 [2]: 6.03 µM
- IC50 [3]: 3.09 µM
SMILES: C=C[C@@]1(C)CC(=O)[C@]2(O)[C@@]3(C)[C@@H](O)CCC(C)(C)[C@@H]3[C@H](O)[C@H](OC(C)=O)[C@@]2(C)O1 [Forskolin]
- Effect (differentiation inducing) ([1]; Dose 1.56 μM): -
- Effect (differentiation inducing) ([1]; Dose 6.25 μM): -
- Effect (differentiation inducing) ([1]; Dose 25.00 μM): ± (slight (<20%))
- Effect (differentiation inducing) ([1]; Dose 100.00 μM): + (medium (20-80%))
